Patent US20110136752A1, “NOVEL ANTIBIOTICS” (priority 2009, published 2011)

What was measured:
[1] = system: different bacterial test strains; test: Effect of serum or BSA supplement on MIC of NOVO4; type: cell-based
Protocol: The lowest concentration of NOVO4 without any cell growth is the MIC (Minimal Inhibitory Concentration) of NOVO4. The data is the MIC of NOVO4 on different bacterial test strains in the presence of Mueller Hinton broth (MHB) or with MHB supplemented with either […].
These studies follow the procedure for determining the MIC described above in Example 5. Briefly, two-fold serial dilution of the NOVO4 compound are added to the test cells of interest, MRSA and VRE, and the lowest concentration of compound that inhibits growth after a period of incubation is considered to be the MIC. To determine the effect of serum on the activity of NOVO4, MIC in the absence of serum is compared to MIC in media supplemented with 10% calf bovine serum (ATCC 30-2030).

[2] = Single-dose acute toxicity in mice; conditions: mouse, in vivo; female CD-1 mice, SC, 3 doses of 50 mg/kg 2 hours apart in 0.5% methylocellulose, followed for 2 days
Protocol: Single-dose, acute toxicity experiments were carried out in female CD-1 mice. The animals were acclimated for 3 days and were 7 weeks old at the start of the experiments. Their weight ranged from 16 to 24 g.
In order to determine the maximum tolerated dose, a group of 3 mice was dosed with a total of 4.9 mg/kg of NOVO4 (10% DMSO in saline) delivered as two separate IV doses, 2 hr apart. In addition, another 3 mice were dosed subcutaneously with a total of 150 mg/kg of NOVO4 in 0.5% methylocellulose, delivered as 3 doses of 50 mg/kg each, 2 hours apart. The mice were then followed for 2 days.
This indicated a very high MTD of >150 mg/kg for NOVO4.

human red blood cells = type: cell-based
Protocol: The effect of NOVO4 on the hemolysis of human red blood cells was also tested. A total of 10 ml of expired packed red blood cells from the blood bank was gently added to 80 ml of PBS (Phosphate buffered saline), and pelleted at 1000 g for 5 minutes at 4° C. The upper phase and buffy layer (white blood cells) were removed. The cells are repeatedly washed by gentle mixing with PBS, and centrifugation until the upper phase is clear. In the last wash, 40 ml of 1× PBS with 0.05% BSA was added to half of the red blood cells while 40 ml of 1× PBS without BSA was added to the other half. The upper phase of the last wash was removed to leave a total volume of about 10 ml. The concentration of the red blood cells was measured by using the spectrophometer at 600 nm. An aliquot of the cells are diluted to a final density OD600 of 24 in 1× PBS, and another to a final density OD600 of 24 in 1× PBS with 0.05% BSA.
The compound NOVO4 is two-fold serially diluted (similar to that described above for mammalian NIH3T3 cytotoxicity assay) as 100× concentration in DMSO, ranging from 0.4 μg/ml to 400 μg/ml. […] After thorough mixing, the A450 was read using a Spectramax Plus Spectrophotometer, using wells with only 1× PBS as blanks […]

[3] = system: NIH3T3 mouse embryonic fibroblasts; test: Mammalian cytotoxicity, CellTiter 96 AQueous One Solution assay; type: cell-based; conditions: NIH3T3 cells, 24 hr, highest tested concentration 16 μg/ml
Protocol: Mammalian cytotoxicity assays were performed using NIH3T3 mouse embryonic fibroblasts (ATCC CRL-1658), and cytotoxicity was measured using the CellTiter 96® AQueous One Solution Cell Proliferation Assay (Promega, Madison, Wis., Cat: G3582), according to the manufacturer's recommendations.
100× working stocks of 2-fold serial dilution of NOVO4 in DMSO were created in a 96 well format. The highest concentration of the 100× concentration (working stock) was prepared by adding […] of the stock solution of NOVO4 (10 mg/ml in DMSO) for every 0.68 μl of DMSO to well A02. 0.5 μl of this 100× stock was added for every 0.5 μl of DMSO in well A03 to create a total of 7 two-fold serial dilution series, from 1600 μg/ml to 25 μg/ml (from highest in well A02 to A08,). A DMSO control was also included (wells in column A01, and A12). […]
The plate was visually inspected under a dissecting microscope, and the absorbance at 490 nm was read using a Spectramax Plus Spectrophotometer, with wells A12, and B12 reserved as blanks The signal of compound alone (well A11) was verified not to contribute to the absorbance at this wavelength. Next, 20 μl of the CellTiter 96® AQueous One Solution Cell Proliferation Assay (Promega, Madison, Wis., Cat: G3582) was added to each well, and the plate was read after 3 hr of incubation. […]

| Compound | effect of 0.05% BSA on the MIC ([1]; MHB versus MHB + 0.05% BSA, depending on the test organisms) | effect of calf bovine serum on the MIC ([1]; MHB versus media supplemented with 10% calf bovine serum) | MTD at 2 days [2] [mg/kg] | hemolysis (human red blood cells) | LD50 [3] [µg/mL] | A450 (hemoglobin released by lysis of red blood cells) (human red blood cells) |
| --- | --- | --- | --- | --- | --- | --- |
| CC1\C=C/C=C\C=C/C=C\C=C/C(OC2OCC(O)C(O)C2N)C(C)(O)/C=C/C=C\C=C/C=C/C(=O)NC1 (stereo not drawn) [NOVO4] | either unchanged or lowered sightly | no significant effect | > 150 | no significant hemolysis | > 16 |  |
| Triton X100 [reference compound] |  |  |  |  |  | 0.41 |
